The subject of one assay is HCT-116. Nature of the assay: Inhibitory activity against HCT116 cells after 24 hr cell growth. It is filed as functional, cell-based. The settings on record: Homo sapiens, HCT-116, 24 h.
For the next assay, the system named is MCF7S. Nature of the assay: Inhibitory activity against MCF-7 cells after 72 hr cell growth. The settings on record: Homo sapiens. It is filed as functional, cell-based.
The subject of another assay is NCI/ADR-RES. The assay is described as follows: Inhibitory activity against MCF7-ADR cells after 72 hr cell growth. In kind it is functional, cell-based. The following applies: Homo sapiens.
Another assay deals with Tubulin. Nature of the assay: Concentration required to reduce the amount of pelleted tubulin. In kind it is protein-complex assay.
In a further assay the test system is KB. Nature of the assay: Cytotoxicity against KB cells. The settings on record: Homo sapiens. In kind it is functional, cell-based.

The source of these data is ChEMBL document CHEMBL1136604, “Cryptophycin affinity labels: synthesis and biological activity of a benzophenone analogue of cryptophycin-24” (Bioorg Med Chem Lett, 2003).

Values after ≈ are worked out from the molar mass of the structure shown.

With `COc1ccc(C[C@H]2NC(=O)/C=C/C[C@@H]([C@H](C)[C@@H]3O[C@@H]3c3ccc(C(=O)c4ccccc4)cc3)OC(=O)[C@H](CC(C)C)OC(=O)CCNC2=O)cc1`, the IC50 in the assay on HCT-116 was 253 nM; in the assay on MCF7S it was 6 nM; in the assay with NCI/ADR-RES, 447 nM; on Tubulin it was greater than 100000 nM.

In the case of `COc1ccc(C[C@H]2NC(=O)/C=C/C[C@@H]([C@H](C)[C@H]3O[C@@H]3c3ccc(C(=O)c4ccccc4)cc3)OC(=O)[C@H](CC(C)C)OC(=O)CCNC2=O)cc1`, the IC50 came to 1.1 nM with HCT-116, 0.078 nM in the assay on MCF7S, 70 nM in the assay on NCI/ADR-RES and 7400 nM at Tubulin.

For `COc1ccc(C[C@H]2NC(=O)/C=C/C[C@@H]([C@H](C)[C@H]3O[C@@H]3c3ccccc3)OC(=O)[C@H](CC(C)C)OC(=O)CCNC2=O)cc1` [ARENASTATIN A], the concentration for half-maximal inhibition (IC50) in the assay on HCT-116 turned out to be 0.285 nM; in the assay on KB, 0.005 ng/mL (≈ 0.00824 nM); with MCF7S it was 0.13 nM; with NCI/ADR-RES it was 0.164 nM; at Tubulin, 15000 nM.

As to `COc1ccc(C[C@H]2NC(=O)/C=C/C[C@@H]([C@H](C)[C@H]3O[C@@H]3c3ccccc3)OC(=O)[C@H](CC(C)C)OC(=O)[C@H](C)CNC2=O)cc1Cl` [CRYPTOPHYCIN A], the IC50 in the assay on HCT-116 was 0.027 nM; in the assay with MCF7S it was 0.003 nM; in the assay with NCI/ADR-RES, 0.013 nM; on Tubulin, 3700 nM.
